Laboratory results published in the supplement of paper PMC13380429.

Legend:
Conditions in all cases: 72 h
Caco-2 [1] = assay: cell viability relative to DMSO; higher = less toxic
Calu-3 [2] = assay: as above
HepG2 [3] = assay: as above
U2OS [4] = assay: as above
Vero E6 [5] = assay: as above
Caco-2 [6] = assay: relative viability EC50 (midpoint between 100% and the lowest measured viability); higher = less toxic
Calu-3 [7] = assay: as above
HepG2 [8] = assay: as above
U2OS [9] = assay: as above
Vero E6 [10] = assay: as above
Caco-2 [11] = assay: drug sensitivity score (DSS) for viability; higher = more toxic; extreme values may be limits of the assay
Calu-3 [12] = assay: as above
HepG2 [13] = assay: as above
U2OS [14] = assay: as above
Vero E6 [15] = assay: as above

SMILES	cell viability (Caco-2 [1]; 1 nM)	cell viability (Caco-2 [1]; 10 nM)	cell viability (Caco-2 [1]; 100 nM)	cell viability (Caco-2 [1]; 1000 nM)	cell viability (Caco-2 [1]; 10000 nM)	cell viability (Calu-3 [2]; 1 nM)	cell viability (Calu-3 [2]; 10 nM)	cell viability (Calu-3 [2]; 100 nM)	cell viability (Calu-3 [2]; 1000 nM)	cell viability (Calu-3 [2]; 10000 nM)	cell viability (HepG2 [3]; 1 nM)	cell viability (HepG2 [3]; 10 nM)	cell viability (HepG2 [3]; 100 nM)	cell viability (HepG2 [3]; 1000 nM)	cell viability (HepG2 [3]; 10000 nM)	cell viability (U2OS [4]; 1 nM)	cell viability (U2OS [4]; 10 nM)	cell viability (U2OS [4]; 100 nM)	cell viability (U2OS [4]; 1000 nM)	cell viability (U2OS [4]; 10000 nM)	cell viability (Vero E6 [5]; 1 nM)	cell viability (Vero E6 [5]; 10 nM)	cell viability (Vero E6 [5]; 100 nM)	cell viability (Vero E6 [5]; 1000 nM)	cell viability (Vero E6 [5]; 10000 nM)	relative viability EC50 (Caco-2 [6])	relative viability EC50 (Calu-3 [7])	relative viability EC50 (HepG2 [8])	relative viability EC50 (U2OS [9])	relative viability EC50 (Vero E6 [10])	drug sensitivity score (Caco-2 [11])	drug sensitivity score (Calu-3 [12])	drug sensitivity score (HepG2 [13])	drug sensitivity score (U2OS [14])	drug sensitivity score (Vero E6 [15])
O=C(O)/C=C1\CCCc2ccccc2[C@H]1O (racemic) [NCS-382]	98.6%	99.3%	91.8%	97%	88.7%	93.4%	95.3%	99.3%	95.5%	101%	108%	96.5%	102%	99.1%	87.2%	96.7%	102%	96%	102%	97.2%	104%	97.2%	103%	99.1%	101%	> 10 µM	> 10 µM	> 10 µM	> 10 µM	> 10 µM	0	0	0.1	0	0
COC(=O)c1cc(OC)c2c(c1-c1c(C(=O)OC)cc(OC)c3c1OCO3)OCO2 [bifendate]	112%	104%	98.4%	102%	89.6%	94.4%	98.1%	101%	106%	104%	94.8%	84%	93.2%	93.8%	90.4%	99.3%	99.3%	97.6%	99.5%	101%	105%	105%	105%	94.6%	107%	> 10 µM	> 10 µM	> 10 µM	> 10 µM	> 10 µM	0	0	0	0	0
c1ccc(C(NCCNC(c2ccccc2)c2ccccc2)c2ccccc2)cc1 [AMN-082]	98.9%	104%	96.5%	94.8%	94.8%	99%	97.7%	96.9%	95.7%	92.2%	103%	92.4%	108%	98.9%	87.4%	96.5%	97.8%	96.7%	105%	93.8%	104%	95%	95%	93.6%	114%	> 10 µM	> 10 µM	> 10 µM	> 10 µM	> 10 µM	0	0	0.2	0	0
CCC(CC)(CC(=O)Nc1cccc(/C=C/c2nc(C3CCC3)cs2)c1)C(=O)O [cinalukast]	99.2%	97.1%	102%	96.9%	90.7%	98.9%	89.9%	88.1%	88.4%	101%	97.4%	108%	106%	91.9%	95.7%	102%	96.7%	107%	99.4%	103%	101%	109%	101%	98.2%	96.6%	> 10 µM	> 10 µM	> 10 µM	> 10 µM	> 10 µM	0	0	0	0	0
CCCCS(=O)(=O)N[C@@H](Cc1ccc(OCCCCC2CCNCC2)cc1)C(=O)O [tirofiban]	94%	99.9%	98.3%	104%	107%	94.5%	84.1%	96.3%	105%	110%	99.1%	102%	104%	91.5%	99.6%	95.5%	98.5%	98.7%	101%	105%	94.8%	93.5%	93.7%	86.3%	101%	> 10 µM	> 10 µM	> 10 µM	> 10 µM	> 10 µM	0	0	0	0	0
C=CCN1C[C@H](C(=O)N(CCCN(C)C)C(=O)NCC)C[C@@H]2c3cccc4[nH]cc(c34)C[C@H]21 [cabergoline]	108%	95.2%	83%	89%	89.5%	106%	99.7%	97.1%	107%	99.4%	89.3%	95.2%	106%	92.8%	90.7%	101%	100%	96.5%	101%	103%	103%	98%	88.9%	96.1%	95.7%	> 10 µM	> 10 µM	> 10 µM	> 10 µM	> 10 µM	4	0	0	0	0
